Data reported in ChEMBL document CHEMBL4616726, “Optimization of the Linker Domain in a Dimeric Compound that Degrades an r(CUG) Repeat Expansion in Cells” (J Med Chem, 2020).
Calls of active or inactive are those of the source. The rule behind the calls is not given here.

Legend:
r(CUG) repeat expansion [1] = experiment: Induction of 5'-biotinylated r(CUG)12 RNA repeat (unknown origin) degradation assessed as disruption of r(CUG)12-MBNL1 complex formation incubated for 15 mins by TR-FRET assay; type: nucleic-acid assay
[2] = (§1) Induction of DNA damage in human DM1-patient derived myotubes at 1 uM assessed as induction of DNA double strand breaks by measuring gamma-H2AX foci formation by immunofluorescence assay relative to control; type: functional
r(CUG) repeat expansion [3] = experiment: Induction of r(CUG)exp RNA repeat in human DM1-patient derived myotubes assessed as improvement in MBNL1 exon 5 splicing defect at 5 uM by RT-qPCR analysis relative to control; type: nucleic-acid assay
[4] = Drug uptake in human DM1-patient derived myotubes by fluorescence based assay; type: ADME; details: in vitro
[5] = Drug localization in cytoplasm of human DM1-patient derived myotubes by live-cell fluorescence microscopy; type: ADME, subcellular
r(CUG) repeat expansion [6] = experiment: Induction of DMPK mRNA 3'-UTR r(CUG)1300 repeat degradation in human DM1 patient-derived myotubes at 5 uM by RT-qPCR analysis relative to control; type: nucleic-acid assay
r(CUG) repeat expansion [7] = experiment: Induction of DMPK mRNA 3'-UTR r(CUG)1300 repeat degradation in human DM1 patient-derived myotubes at 0.2 to 5 uM by RT-qPCR analysis relative to control; type: nucleic-acid assay
r(CUG) repeat expansion [8] = experiment: Induction of r(CUG)exp RNA repeat in human DM1-patient derived myotubes assessed as improvement in MBNL1 exon 5 splicing defect at 0.2 to 5 uM by RT-qPCR analysis relative to control; type: nucleic-acid assay
r(CUG) repeat expansion [9] = experiment: Induction of r(CUG)10 RNA repeat (unknown origin) degradation at 2.5 uM relative to control; type: nucleic-acid assay
r(CUG) repeat expansion [10] = experiment: Induction of SCUBE2 r(CUG)7 RNA repeat degradation in human DM1 patient myotubes at 1 uM by RT-qPCR analysis relative to control; type: nucleic-acid assay
r(CUG) repeat expansion [11] = experiment: Induction of SORCS2 r(CUG)7 RNA repeat degradation in human DM1 patient myotubes at 1 uM by RT-qPCR analysis relative to control; type: nucleic-acid assay
r(CUG) repeat expansion [12] = experiment: Induction of CASK r(CUG)16 RNA repeat degradation in human DM1 patient myotubes at 1 uM by RT-qPCR analysis relative to control; type: nucleic-acid assay
Homo sapiens [13] = species: Homo sapiens; experiment: as §1; type: functional
r(CUG) repeat expansion [14] = experiment: Binding affinity to r(CUG)12 RNA repeat (unknown origin) by fluorescence based assay; type: nucleic-acid assay
r(CUG) repeat expansion [15] = experiment: Induction of r(CUG)exp RNA repeat in human DM1-patient derived myotubes assessed as reduction in number of foci containing r(CUG)exp-MBNL1 foci at 1 uM by RNA fluorescence in situ hybridization assay; type: nucleic-acid assay
r(CUG) repeat expansion [16] = experiment: Induction of r(CUG)10 RNA repeat (unknown origin) degradation at 0.3 to 2.5 uM; type: nucleic-acid assay
r(CUG) repeat expansion [17] = experiment: Induction of wild-type DMPK r(CUG)20 RNA repeat degradation in healthy human myotubes at 5 uM by RT-qPCR analysis relative to control; type: nucleic-acid assay
r(CUG) repeat expansion [18] = experiment: Induction of wild-type DMPK r(CUG)20 RNA repeat degradation in human DM1 patient myotubes at 1 uM by RT-qPCR analysis relative to control; type: nucleic-acid assay
r(CUG) repeat expansion [19] = experiment: Induction of MAP3K4 r(CUG)11 RNA repeat degradation in human DM1 patient myotubes at 1 uM by RT-qPCR analysis relative to control; type: nucleic-acid assay
r(CUG) repeat expansion [20] = experiment: Induction of DMPK mRNA 3'-UTR r(CUG)1300 repeat degradation in human DM1 patient-derived myotubes at 1 uM by RT-qPCR analysis relative to control; type: nucleic-acid assay
r(CUG) repeat expansion [21] = experiment: Binding affinity to r(CUG)8 RNA repeat (unknown origin) by fluorescence based assay; type: nucleic-acid assay
r(CUG) repeat expansion [22] = experiment: Induction of r(CUG)exp RNA repeat in human DM1-patient derived myotubes assessed as improvement in MBNL1 exon 5 splicing defect at 1 uM by RT-qPCR analysis relative to control; type: nucleic-acid assay
Homo sapiens [23] = species: Homo sapiens; experiment: Effect on MBNL1 exon 5 splicing patterns in wild type human myotubes at 5 uM by RT-qPCR analysis relative to control; type: functional
Homo sapiens [24] = species: Homo sapiens; experiment: Effect on alternative splicing of MAP4K4 exon 22a in human DM1-patient derived myotubes at 5 uM by RT-qPCR analysis relative to control; type: functional
r(CUG) repeat expansion [25] = experiment: Induction of LRP8 r(CUG)11 RNA repeat degradation in human DM1 patient myotubes at 1 uM by RT-qPCR analysis relative to control; type: nucleic-acid assay

CN1CCN(c2ccc3[nH]c(-c4ccc5[nH]c(-c6cccc(OCCCC(=O)N(C)CCCCN(CC(N)=O)C(=O)[C@H](Cc7ccc(O)cc7)N(C)C(=O)[C@H](Cc7ccc(O)cc7)N(C)C(=O)[C@H](Cc7ccc(O)cc7)N(C)C(=O)[C@H](Cc7ccc(O)cc7)N(C)C(=O)CCCOc7cccc(-c8nc9ccc(-c%10nc%11ccc(N%12CCN(C)CC%12)cc%11[nH]%10)cc9[nH]8)c7)c6)nc5c4)nc3c2)CC1
Activity (r(CUG) repeat expansion [1]): Active

Cc1c(N)nc([C@H](CC(N)=O)NC[C@H](N)C(N)=O)nc1C(=O)N[C@H](C(=O)N[C@H](C)[C@@H](O)[C@H](C)C(=O)N[C@H](C(=O)NCCc1nc(-c2nc(C(=O)NCCCNCCCCN)cs2)cs1)[C@@H](C)O)[C@@H](O[C@@H]1O[C@@H](CO)[C@@H](O)[C@H](O)[C@@H]1O[C@@H]1O[C@H](CO)[C@@H](O)[C@H](OC(N)=O)[C@@H]1O)c1cnc[nH]1
fold change (FC) [2]: 6

CN1CCN(c2ccc3[nH]c(-c4ccc5[nH]c(-c6cccc(OCCCC(=O)N(C)CCCCN(CC(N)=O)C(=O)[C@@H]7C[C@@H](O)CN7C(=O)[C@@H]7C[C@@H](O)CN7C(=O)[C@@H]7C[C@@H](O)CN7C(=O)[C@@H]7C[C@@H](O)CN7C(=O)CCCOc7cccc(-c8nc9ccc(-c%10nc%11ccc(N%12CCN(C)CC%12)cc%11[nH]%10)cc9[nH]8)c7)c6)nc5c4)nc3c2)CC1
Activity (r(CUG) repeat expansion [3]): inactive | Drug uptake [4]: Active | Activity (r(CUG) repeat expansion [1]): Active | Drug uptake [5]: Active

CC(=O)O[C@H]1[C@H](O)[C@H](O[C@@H]2[C@H](O[C@H](c3cnc[nH]3)[C@@H](NC(=O)c3nc([C@@H](CC(N)=O)NC[C@@H](N)C(N)=O)nc(N)c3C)C(=O)N[C@@H](C)[C@H](O)[C@@H](C)C(=O)N[C@H](C(=O)NCCc3nc(-c4nc(C(=O)NCCCNCCCCNC(=O)CCCCCCC(=O)N(CCN(C)C(=O)CCCOc5cccc(-c6nc7ccc(-c8nc9ccc(N%10CCN(C)CC%10)cc9[nH]8)cc7[nH]6)c5)CC(=O)N(C)[C@@H](C)C(=O)N(C)[C@@H](C)C(=O)N(C)[C@@H](C)C(=O)N(CCCCN(C)C(=O)CCCOc5cccc(-c6nc7ccc(-c8nc9ccc(N%10CCN(C)CC%10)cc9[nH]8)cc7[nH]6)c5)CC(N)=O)cs4)cs3)[C@H](C)O)O[C@@H](CO)[C@H](O)[C@H]2O)O[C@@H](CO)[C@@H]1O
Activity (r(CUG) repeat expansion [6]): 30%

CN1CCN(c2ccc3[nH]c(-c4ccc5[nH]c(-c6cccc(OCCCC(=O)N(C)CCCCN(CC(N)=O)C(=O)[C@@H]7CCCN7C(=O)[C@@H]7CCCN7C(=O)[C@@H]7CCCN7C(=O)[C@@H]7CCCN7C(=O)CCCOc7cccc(-c8nc9ccc(-c%10nc%11ccc(N%12CCN(C)CC%12)cc%11[nH]%10)cc9[nH]8)c7)c6)nc5c4)nc3c2)CC1
Activity (r(CUG) repeat expansion [1]): Active

CC(=O)N(C)CCCCN(CC(=O)NCCCCNCCCNC(=O)c1csc(-c2csc(CCNC(=O)[C@@H](NC(=O)[C@H](C)[C@@H](O)[C@H](C)NC(=O)[C@H](NC(=O)c3nc([C@@H](CC(N)=O)NC[C@@H](N)C(N)=O)nc(N)c3C)[C@H](O[C@@H]3O[C@@H](CO)[C@@H](O)[C@@H](O)[C@@H]3O[C@H]3O[C@H](CO)[C@@H](O)[C@H](OC(N)=O)[C@H]3O)c3cnc[nH]3)[C@H](C)O)n2)n1)C(=O)[C@H]1CCCN1C(=O)[C@H]1CCCN1C(C)=O
Activity (r(CUG) repeat expansion [7]): inactive | Activity (r(CUG) repeat expansion [8]): inactive | Activity (r(CUG) repeat expansion [9]): inactive

Cc1c(N)nc([C@@H](CC(N)=O)NC[C@@H](N)C(N)=O)nc1C(=O)N[C@@H](C(=O)N[C@@H](C)[C@H](O)[C@@H](C)C(=O)N[C@H](C(=O)NCCc1nc(-c2nc(C(=O)NCCCNCCCCNC(=O)CN(CCCCN(C)C(=O)CCCOc3cccc(-c4nc5cc(-c6nc7cc(N8CCN(C)CC8)ccc7[nH]6)ccc5[nH]4)c3)C(=O)[C@H]3CCCN3C(=O)[C@H]3CCCN3C(=O)CCCOc3cccc(-c4nc5ccc(-c6nc7ccc(N8CCN(C)CC8)cc7[nH]6)cc5[nH]4)c3)cs2)cs1)[C@H](C)O)[C@H](O[C@@H]1O[C@@H](CO)[C@@H](O)[C@@H](O)[C@@H]1O[C@H]1O[C@H](CO)[C@@H](O)[C@H](OC(N)=O)[C@H]1O)c1cnc[nH]1
Activity (r(CUG) repeat expansion [10]): inactive | Activity (r(CUG) repeat expansion [11]): inactive | Activity (r(CUG) repeat expansion [12]): inactive | Activity (Homo sapiens [13]): inactive | EC50 (r(CUG) repeat expansion [14]): 280 nM | Activity (r(CUG) repeat expansion [15]): Active | Activity (r(CUG) repeat expansion [3]): 50% | Activity (r(CUG) repeat expansion [16]): Dose-dependent effect | Activity (r(CUG) repeat expansion [17]): inactive | Activity (r(CUG) repeat expansion [18]): inactive | Activity (r(CUG) repeat expansion [19]): inactive | Activity (r(CUG) repeat expansion [20]): Active | Drug uptake [4]: Active | EC50 (r(CUG) repeat expansion [21]): > 10000 nM | Activity (r(CUG) repeat expansion [6]): 45% | Activity (r(CUG) repeat expansion [22]): 30% | Activity (Homo sapiens [23]): inactive | Activity (r(CUG) repeat expansion [9]): 20% | Activity (Homo sapiens [24]): inactive | Activity (r(CUG) repeat expansion [25]): inactive
